Results reported in US20150274719A1, “AMINO-SUBSTITUTED IMIDAZO[1,2-A]PYRIDINECARBOXAMIDES AND THEIR USE” (BAYER PHARMA AKTIENGESELLSCHAFT, priority 2012, published 2015).
Counter-ions that a name gives are not always drawn.

Biological target: T1, recombinant guanylate cyclase reporter cell line (Rattus norvegicus, UniProt P19686+P20595)
T1 construct: expressed in transfected cells; host or cells: recombinant reporter cell line
T1 sequence (P19686 1-690): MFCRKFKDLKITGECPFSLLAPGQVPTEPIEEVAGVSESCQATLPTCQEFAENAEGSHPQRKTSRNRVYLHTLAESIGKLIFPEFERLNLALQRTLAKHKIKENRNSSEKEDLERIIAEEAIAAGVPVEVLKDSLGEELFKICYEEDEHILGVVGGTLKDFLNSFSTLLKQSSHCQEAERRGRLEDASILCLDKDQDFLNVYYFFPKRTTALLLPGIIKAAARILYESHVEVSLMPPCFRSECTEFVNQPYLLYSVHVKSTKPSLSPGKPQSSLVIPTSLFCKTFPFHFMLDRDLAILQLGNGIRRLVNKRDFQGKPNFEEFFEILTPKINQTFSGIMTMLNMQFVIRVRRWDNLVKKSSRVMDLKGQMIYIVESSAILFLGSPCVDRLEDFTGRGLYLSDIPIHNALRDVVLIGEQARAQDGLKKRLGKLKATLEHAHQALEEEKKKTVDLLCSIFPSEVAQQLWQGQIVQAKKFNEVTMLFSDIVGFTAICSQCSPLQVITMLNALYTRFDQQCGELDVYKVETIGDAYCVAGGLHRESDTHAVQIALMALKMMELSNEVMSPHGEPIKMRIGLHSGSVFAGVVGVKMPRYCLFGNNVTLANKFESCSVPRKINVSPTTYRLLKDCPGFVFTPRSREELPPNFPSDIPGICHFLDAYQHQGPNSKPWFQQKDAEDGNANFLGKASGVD
T1 sequence (P20595 1-619): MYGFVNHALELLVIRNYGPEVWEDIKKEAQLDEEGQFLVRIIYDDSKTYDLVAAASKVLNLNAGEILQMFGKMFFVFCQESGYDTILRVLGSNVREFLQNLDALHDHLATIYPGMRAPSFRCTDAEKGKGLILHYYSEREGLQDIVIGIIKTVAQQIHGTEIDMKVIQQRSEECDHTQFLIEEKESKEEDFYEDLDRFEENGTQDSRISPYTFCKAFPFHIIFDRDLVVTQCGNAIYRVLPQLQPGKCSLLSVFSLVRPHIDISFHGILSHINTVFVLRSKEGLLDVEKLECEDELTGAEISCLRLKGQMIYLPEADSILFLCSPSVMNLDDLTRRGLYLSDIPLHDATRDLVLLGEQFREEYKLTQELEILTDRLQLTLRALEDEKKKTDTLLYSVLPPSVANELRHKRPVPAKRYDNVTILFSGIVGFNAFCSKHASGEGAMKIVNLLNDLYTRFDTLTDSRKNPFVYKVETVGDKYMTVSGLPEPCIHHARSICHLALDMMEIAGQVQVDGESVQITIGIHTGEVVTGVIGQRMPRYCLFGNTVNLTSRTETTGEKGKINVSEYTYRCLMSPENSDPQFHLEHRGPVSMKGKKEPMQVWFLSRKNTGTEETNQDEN
Assay: Action on recombinant guanylate cyclase reporter cell line
Format: cell-based
Conditions: in some cases mean values from individual determinations
Procedure, shortened: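 Compounds are tested on whole cells carrying a guanylate cyclase reporter construct. The lowest concentration giving an effect is recorded as the MEC.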

Structure (SMILES): Cc1nc2c(OCc3c(F)cccc3F)cc(Cl)cn2c1C(=O)NCC(N)CC(F)(F)F (single isomer, unassigned) [Example 192, ent-N-(2-Amino-4,4,4-trifluorobutyl)-6-chloro-8-[(2,6-difluorobenzyl)oxy]-2-methylimidazo[1,2-a]pyridine-3-carboxamide]
- MEC (minimal effective concentration): 0.30 µM

Structure (SMILES): Cc1nc2c(OCc3c(F)cccc3F)cc(Cl)cn2c1C(=O)NCC(N)CC(F)(F)F (single isomer, unassigned) [Example 193, ent-N-(2-Amino-4,4,4-trifluorobutyl)-6-chloro-8-[(2,6-difluorobenzyl)oxy]-2-methylimidazo[1,2-a]pyridine-3-carboxamide]
- MEC (minimal effective concentration): 1.00 µM

Structure (SMILES): CCC(C)(N)CNC(=O)c1c(C)nc2c(OCc3c(F)cccc3F)cc(Cl)cn12 (single isomer, unassigned) [Example 195, ent-N-(2-Amino-2-methylbutyl)-6-chloro-8-[(2,6-difluorobenzyl)oxy]-2-methylimidazo[1,2-a]-pyridine-3-carboxamide]
- MEC (minimal effective concentration): 0.30 µM

Structure (SMILES): COCC(C)(N)CNC(=O)c1c(C)nc2c(OCc3c(F)cccc3F)cc(Cl)cn12 (single isomer, unassigned) [Example 196, ent-N-(2-Amino-3-methoxy-2-methylpropyl)-6-chloro-8-[(2,6-difluorobenzyl)oxy]-2-methylimidazo[1,2-a]pyridine-3-carboxamide]
- MEC (minimal effective concentration): 1.00 µM

Structure (SMILES): COCC(C)(N)CNC(=O)c1c(C)nc2c(OCc3c(F)cccc3F)cc(Cl)cn12 (single isomer, unassigned) [Example 197, ent-N-(2-Amino-3-methoxy-2-methylpropyl)-6-chloro-8-[(2,6-difluorobenzyl)oxy]-2-methylimidazo[1,2-a]pyridine-3-carboxamide]
- MEC (minimal effective concentration): 1.00 µM

Structure (SMILES): COCC(C)(N)CNC(=O)c1c(C)nc2c(OCc3c(F)cccc3F)cc(C)cn12 (single isomer, unassigned) [Example 198, ent-N-(2-Amino-3-methoxy-2-methylpropyl)-8-[(2,6-difluorobenzyl)oxy]-2,6-dimethylimidazo-[1,2-a]pyridine-3-carboxamide]
- MEC (minimal effective concentration): 0.30 µM

Structure (SMILES): COCC(C)(N)CNC(=O)c1c(C)nc2c(OCc3c(F)cccc3F)cc(C)cn12 (single isomer, unassigned) [Example 199, ent-N-(2-Amino-3-methoxy-2-methylpropyl)-8-[(2,6-difluorobenzyl)oxy]-2,6-dimethylimidazo-[1,2-a]pyridine-3-carboxamide]
- MEC (minimal effective concentration): 0.30 µM

Structure (SMILES): CC[C@](C)(N)CNC(=O)c1c(C)nc2c(OCc3c(F)cccc3F)cc(C)cn12 (single isomer, unassigned) [Example 200]
- MEC (minimal effective concentration): 0.04 µM

Structure (SMILES): Cc1nc2c(OCc3c(F)cccc3F)cccn2c1C(=O)NCC(C)(N)CC(C)C (single isomer, unassigned) [Example 203, ent-N-(2-Amino-2,4-dimethylpentyl)-8-[(2,6-difluorobenzyl)oxy]-2-methylimidazo[1,2-a]pyridine-3-carboxamide]
- MEC (minimal effective concentration): 0.10 µM

Structure (SMILES): Cc1nc2c(OCc3c(F)cccc3F)cccn2c1C(=O)NCC(C)(N)CC(C)C (single isomer, unassigned) [Example 204, ent-N-(2-Amino-2,4-dimethylpentyl)-8-[(2,6-difluorobenzyl)oxy]-2-methylimidazo[1,2-a]pyridine-3-carboxamide]
- MEC (minimal effective concentration): 1.00 µM

Structure (SMILES): Cc1nc2c(OCc3c(F)cccc3F)cccn2c1C(=O)NCC(N)C(F)(F)F (single isomer, unassigned) [Example 208, ent-N-(2-Amino-3,3,3-trifluoropropyl)-8-[(2,6-difluorobenzyl)oxy]-2-methylimidazo[1,2-a]-pyridine-3-carboxamide]
- MEC (minimal effective concentration): 0.30 µM

Structure (SMILES): Cc1nc2c(OCc3c(F)cccc3F)cccn2c1C(=O)NCC(N)C(F)(F)F (single isomer, unassigned) [Example 209, ent-N-(2-Amino-3,3,3-trifluoropropyl)-8-[(2,6-difluorobenzyl)oxy]-2-methylimidazo[1,2-a]-pyridine-3-carboxamide]
- MEC (minimal effective concentration): 0.30 µM

Structure (SMILES): COCC(CN)NC(=O)c1c(C)nc2c(OCc3c(F)cccc3F)cc(C)cn12 (single isomer, unassigned) [Example 210, ent-N-(1-amino-3-methoxypropan-2-yl)-8-[(2,6-difluorobenzyl)oxy]-2,6-dimethylimidazo[1,2-a]-pyridine-3-carboxamide trifluoroacetate]
- MEC (minimal effective concentration): 0.30 µM

Structure (SMILES): Cc1nc2c(OCc3c(F)cccc3F)cc(Cl)cn2c1C(=O)NCC(N)C(C)C (single isomer, unassigned) [Example 212, ent-N-(2-Amino-3-methylbutyl)-6-chloro-8-[(2,6-difluorobenzyl)oxy]-2-methylimidazo[1,2-a]-pyridine-3-carboxamide]
- MEC (minimal effective concentration): 1.00 µM

Structure (SMILES): COCC(C)(N)CNC(=O)c1c(C)nc2c(OCc3c(F)cccc3F)cccn12 (single isomer, unassigned) [Example 214, ent-N-(2-Amino-3-methoxy-2-methylpropyl)-8-[(2,6-difluorobenzyl)oxy]-2-methylimidazo[1,2-a]-pyridine-3-carboxamide]
- MEC (minimal effective concentration): 0.30 µM

Structure (SMILES): COCC(C)(N)CNC(=O)c1c(C)nc2c(OCc3c(F)cccc3F)cccn12 (single isomer, unassigned) [Example 215, ent-N-(2-Amino-3-methoxy-2-methylpropyl)-8-[(2,6-difluorobenzyl)oxy]-2-methylimidazo[1,2-a]-pyridine-3-carboxamide]
- MEC (minimal effective concentration): 1.00 µM

Structure (SMILES): Cc1cc(OCc2c(F)cccc2F)c2nc(C)c(C(=O)NCC(C)(N)CC(C)C)n2c1 (single isomer, unassigned) [Example 219, ent-N-(2-Amino-2,4-dimethylpentyl)-8-[(2,6-difluorobenzyl)oxy]-2,6-dimethylimidazo[1,2-a]-pyridine-3-carboxamide]
- MEC (minimal effective concentration): 0.30 µM

Structure (SMILES): Cc1cc(OCc2c(F)cccc2F)c2nc(C)c(C(=O)NCC(C)(N)CC(C)C)n2c1 (single isomer, unassigned) [Example 220, ent-N-(2-Amino-2,4-dimethylpentyl)-8-[(2,6-difluorobenzyl)oxy]-2,6-dimethylimidazo[1,2-a]-pyridine-3-carboxamide]
- MEC (minimal effective concentration): 0.10 µM

Structure (SMILES): Cc1cc(OCc2c(F)cccc2F)c2nc(C)c(C(=O)NCC(N)C(C)C)n2c1 (single isomer, unassigned) [Example 224, ent-N-(2-Amino-3-methylbutyl)-8-[(2,6-difluorobenzyl)oxy]-2,6-dimethylimidazo[1,2-a]pyridine-3-carboxamide]
- MEC (minimal effective concentration): 0.30 µM

Structure (SMILES): Cc1nc2c(OCc3c(F)cccc3F)cc(Cl)cn2c1C(=O)NCC(C)(N)CC(C)C (single isomer, unassigned) [Example 226, ent-N-(2-Amino-2,4-dimethylpentyl)-6-chloro-8-[(2,6-difluorobenzyl)oxy]-2-methylimidazo[1,2-a]pyridine-3-carboxamide]
- MEC (minimal effective concentration): 0.10 µM

Structure (SMILES): Cc1nc2c(OCc3c(F)cccc3F)cc(Cl)cn2c1C(=O)NCC(C)(N)CC(C)C (single isomer, unassigned) [Example 227, ent-N-(2-Amino-2,4-dimethylpentyl)-6-chloro-8-[(2,6-difluorobenzyl)oxy]-2-methylimidazo[1,2-a]pyridine-3-carboxamide]
- MEC (minimal effective concentration): 0.30 µM

Structure (SMILES): Cc1nc2c(OCc3c(F)cccc3F)cccn2c1C(=O)NCC(N)C(C)C (single isomer, unassigned) [Example 228, ent-N-(2-Amino-3-methylbutyl)-8-[(2,6-difluorobenzyl)oxy]-2-methylimidazo[1,2-a]pyridine-3-carboxamide]
- MEC (minimal effective concentration): 1.00 µM
